Results published in patent publication US6593342B1, “Pharmaceutical compositions comprising 2-quinolones” (Laboratoire L. Lafon, priority 1998, dated 2003).

How the values were obtained:
[1] = tested on: hormone-sensitive mouse mammary adenocarcinoma MXT (HS-MXT); assay: In vivo antitumor activity, mouse mammary adenocarcinoma HS-MXT
Procedure: (§1) 4.—In Vivo Antitumor Activity in Combination With a Cytotoxic Agent
(§2) The tests were carried out on models of:
hormone-sensitive mouse mammary adenocarcinoma MXT (HS-MXT),
(§3) in the presence or absence of cytotoxic agents such as cyclophosphamide, etoposide, doxorubicin or vincristine.
(§4) When the MTD value of a product was determined, its in vivo antitumor activity was characterized at doses of MTD/2, MTD/4 and MTD/8 on the model of mouse mammary adenocarcinoma HS-MXT and on the model of lymphoma P 388.
(§5) In all the examples presented below, irrespective of the model (mammary adenocarcinoma HS-MXT or lymphoma P 388), the control condition is represented by a batch of 9 mice to which is administered for 5 consecutive weeks and at a rate of 5 administrations (Monday, Tuesday, Wednesday, Thursday and Friday) per week a volume of 0.2 ml of physiological saline containing the solvent used to dissolve the various compounds of formulae (I) and (Ia) used.
The following parameters were determined in these tests:
(§6) i)—The survival rate of the mice
(§7) This survival rate was calculated in the form of a ratio T/C:
(§8) This ratio represents the average survival time of the median mouse from the batch of treated mice relative to the average survival time of the median mouse from the batch of control mice. Thus, a molecule induces a significant (P<0.05) increase in the survival of the animals when the index T/C exceeds 130%. Conversely, it has a toxic effect when this value of T/C is less than 70%.
ii)—The tumor growth [lacuna] by measuring the area of the grafted HS-MXT or P 388 tumors twice a week (Monday and Friday). This area is calculated by multiplying the values of the largest two perpendicular axes of the tumor. The value of these axes is measured using a sliding caliper.
The model of hormone-sensitive MXT (HS-MXT) mouse mammary adenocarcinoma grafted onto 4- to 6-week-old B6D2F1/JIco mice is derived from the milk ducts of the mammary gland (Watson C. et al. Cancer Res. 1977; 37: 3344-48).
Compound 1 is administered alone. The first injection of the product is carried out on the seventh day post-grafting (D7) for four consecutive weeks at a rate of 5 injections per week (Monday, Tuesday, Wednesday, Thursday and Friday) and at a dose of 20 mg/kg.
Cyclophosphamide (CPA) is administered alone. The first injection of the product is carried out on the fourteenth day post-grafting (D14) for three consecutive weeks at a rate of 3 injections per week (Monday, Wednesday and Friday) and at a dose of 10 mg/kg.
Compound 1 is co-administered with cyclophosphamide. In this case, the first injection of compound 1 is carried out on the seventh day post-grafting (D7) for four consecutive weeks at a rate of 5 injections per week (Monday, Tuesday, Wednesday, Thursday and Friday) at a dose of 20 mg/kg, and the first injection of cyclophosphamide is carried out on the fourteenth day post-grafting (D14) for three consecutive weeks at a rate of 3 injections per week (Monday, Wednesday and Friday) at a dose of 10 mg/kg.
Etoposide (ETO) is administered alone. The first injection of the product is carried out on the fourteenth day post-grafting (D14) for three consecutive weeks at a rate of 3 injections per week (Monday, Wednesday and Friday) and at a dose of 10 mg/kg.
Doxorubicin (DOX) is administered alone. The first injection of the product is carried out on the fourteenth day post-grafting (D14) for three consecutive weeks at a rate of 3 injections per week (Monday, Wednesday and Friday) and at a dose of 5 mg/kg.
Compound 1 is co-administered with etoposide.

[2] = tested on: lymphoma P 388; assay: In vivo antitumor activity, lymphoma P 388; parameters: species or system mouse; details: Table IX; subcutaneous P 388 in CDF1 mice; compound 1 or 20 40 mg/kg 5/week from D5, 5 weeks; VCR 0.63 mg/kg 3/week from D5, 3 weeks
Procedure: as §1, §2, §3, §4, §5, §6, §7, §8
4- to 6-week-old CDF1 mice are grafted with a piece of P 388 tumor (from a tumor bank maintained in the laboratory) subcutaneously into the right flank on day D0. In order to be under conditions close to clinical reality, we waited until the 5th day post-grafting (D5) before starting the treatment. The reason for this was that, after this period of time, the subcutaneous P 388 tumors are palpable.
Compound 1 is administered alone. The first injection of the product is carried out on the 5th day post-grafting (D5) at a rate of 5 injections per week (Monday, Tuesday, Wednesday, Thursday and Friday) for five consecutive weeks-and at a dose of 40 mg/kg.
Compound 20 is administered alone. […]

[3] = Table V, HS-MXT in B6D2F1/JIco mice, compound 1 20 mg/kg 5/week from D7, 4 weeks, ETO 10 mg/kg or DOX 5 mg/kg 3/week from D14, 3 weeks

`COc1cc([C@@H]2c3cc4c(cc3[C@@H](O[C@@H]3O[C@@H]5CO[C@@H](C)O[C@H]5[C@H](O)[C@H]3O)[C@H]3COC(=O)[C@H]23)OCO4)cc(OC)c1O` [ETO, Etoposide] was tested, and the “T/C (survival)” value [1, 3] was 130% and the “T/C (survival)” value ([1]; Table VII, HS-MXT, compound 21 40 mg/kg 5/week from D7, 5 weeks, ETO 10 mg/kg 3/week from D7, 3 weeks) was 124%.
For `CC[C@]1(O)C[C@H]2CN(CCc3c([nH]c4ccccc34)[C@@](C(=O)OC)(c3cc4c(cc3OC)N(C=O)[C@H]3[C@@](O)(C(=O)OC)[C@H](OC(C)=O)[C@]5(CC)C=CCN6CC[C@]43[C@@H]65)C2)C1` [VCR, Vincristine, reference compound], the “T/C (survival)” value [2] was 122%.
For `COc1cccc2c1C(=O)c1c(O)c3c(c(O)c1C2=O)C[C@@](O)(C(=O)CO)C[C@@H]3O[C@H]1C[C@H](N)[C@H](O)[C@H](C)O1` [DOX, Doxorubicin], the “T/C (survival)” value [1, 3] was 92.5%.
`O=P1(N(CCCl)CCCl)NCCCO1` (stereo not drawn) [CPA, Cyclophosphamide] was tested, and the “T/C (survival)” value ([1]; Table IV, HS-MXT in B6D2F1/JIco mice, compound 1 20 mg/kg 5 injections/week from D7, 4 weeks, CPA 10 mg/kg 3 injections/week from D14, 3 weeks) was 122% and the “Tumor area, reduction (−) or increase (+) compared with control” value ([1]; Table VI, HS-MXT tumors, 31st day after graft, 19 administrations of compound 1 (20 mg/kg), 8 of cyclophosphamide (10 mg/kg)) was −23.6%.
